In the supplement of paper PMC13380429:

Tests used:
Conditions in all cases: 72 h
Caco-2 [1] = assay: cell viability relative to DMSO; higher = less toxic
Calu-3 [2] = assay: as above
HepG2 [3] = assay: as above
U2OS [4] = assay: as above
Vero E6 [5] = assay: as above
Caco-2 [6] = assay: relative viability EC50 (midpoint between 100% and the lowest measured viability); higher = less toxic
Calu-3 [7] = assay: as above
HepG2 [8] = assay: as above
U2OS [9] = assay: as above
Vero E6 [10] = assay: as above
Caco-2 [11] = assay: drug sensitivity score (DSS) for viability; higher = more toxic; extreme values may be limits of the assay
Calu-3 [12] = assay: as above
HepG2 [13] = assay: as above
U2OS [14] = assay: as above
Vero E6 [15] = assay: as above

Row | Structure (SMILES) | cell viability (Caco-2 [1]; 1 nM) | cell viability (Caco-2 [1]; 10 nM) | cell viability (Caco-2 [1]; 100 nM) | cell viability (Caco-2 [1]; 1000 nM) | cell viability (Caco-2 [1]; 10000 nM) | cell viability (Calu-3 [2]; 1 nM) | cell viability (Calu-3 [2]; 10 nM) | cell viability (Calu-3 [2]; 100 nM) | cell viability (Calu-3 [2]; 1000 nM) | cell viability (Calu-3 [2]; 10000 nM) | cell viability (HepG2 [3]; 1 nM) | cell viability (HepG2 [3]; 10 nM) | cell viability (HepG2 [3]; 100 nM) | cell viability (HepG2 [3]; 1000 nM) | cell viability (HepG2 [3]; 10000 nM) | cell viability (U2OS [4]; 1 nM) | cell viability (U2OS [4]; 10 nM) | cell viability (U2OS [4]; 100 nM) | cell viability (U2OS [4]; 1000 nM) | cell viability (U2OS [4]; 10000 nM) | cell viability (Vero E6 [5]; 1 nM) | cell viability (Vero E6 [5]; 10 nM) | cell viability (Vero E6 [5]; 100 nM) | cell viability (Vero E6 [5]; 1000 nM) | cell viability (Vero E6 [5]; 10000 nM) | relative viability EC50 (Caco-2 [6]) | relative viability EC50 (Calu-3 [7]) | relative viability EC50 (HepG2 [8]) | relative viability EC50 (U2OS [9]) | relative viability EC50 (Vero E6 [10]) | drug sensitivity score (Caco-2 [11]) | drug sensitivity score (Calu-3 [12]) | drug sensitivity score (HepG2 [13]) | drug sensitivity score (U2OS [14]) | drug sensitivity score (Vero E6 [15])
1 | Cc1cc2c(OCC(CNC(C)(C)C)OC(=O)c3ccccc3)cccc2[nH]1 (stereo not given) [bopindolol] | 93.7% | 102% | 95.4% | 102% | 91.7% | 101% | 102% | 108% | 103% | 92% | 94% | 100% | 101% | 96.8% | 95.8% | 92.7% | 101% | 93% | 110% | 90.4% | 101% | 91.6% | 95.9% | 98.5% | 98.1% | > 10 µM | > 10 µM | > 10 µM | > 10 µM | > 10 µM | 0 | 0 | 0 | 0 | 0
2 | CC(=O)NC[C@H]1CN(c2ccc(-c3ccc(CNCc4cnn[nH]4)cc3)c(F)c2)C(=O)O1 [radezolid] | 96.8% | 106% | 104% | 118% | 87.8% | 104% | 97.6% | 97.4% | 90.6% | 101% | 105% | 106% | 108% | 54.4% | 49.2% | 98.9% | 98.8% | 99.7% | 96.4% | 94.2% | 100% | 96.2% | 99.3% | 93.8% | 93.6% | > 10 µM | > 10 µM | 0.472 µM | > 10 µM | > 10 µM | 0 | 0 | 8.1 | 0 | 0
3 | O=C1C(=O)N(Cc2ccc(Cl)c(Cl)c2)c2ccccc21 [apoptosis-activator-II] | 91.6% | 104% | 93.3% | 96.7% | 84.5% | 95.7% | 93% | 103% | 92.6% | 89% | 103% | 98% | 108% | 107% | 84.5% | 99.2% | 98.9% | 94% | 94.4% | 30.2% | 106% | 102% | 103% | 102% | 87.8% | > 10 µM | > 10 µM | > 10 µM | 2.5 µM | > 10 µM | 0.2 | 0 | 0.1 | 4.7 | 0
4 | Cc1oc2nc3c(c(NC(=O)CN4CCCC4=O)c2c1C)CCCC3 [BCI-540] | 94.4% | 99.2% | 99.8% | 103% | 101% | 90.2% | 101% | 94.4% | 104% | 107% | 88.7% | 100% | 98.5% | 98% | 94.3% | 100% | 99.8% | 97.8% | 105% | 101% | 93.2% | 93.8% | 99.5% | 92.5% | 110% | > 10 µM | > 10 µM | > 10 µM | > 10 µM | > 10 µM | 0 | 0 | 0 | 0 | 0
5 | C[C@@H]1C(=O)O[C@H]2C[C@@]34[C@H]5C[C@@H](C(C)(C)C)[C@]36[C@@H](OC(=O)[C@@H]6O)O[C@@]4(C(=O)O5)[C@]21O [Ginkgolide A] | 101% | 97.3% | 98.2% | 93.4% | 95.6% | 104% | 103% | 96.4% | 106% | 105% | 101% | 88.5% | 100% | 92.6% | 94.3% | 105% | 98.4% | 102% | 100% | 104% | 104% | 95.1% | 98.9% | 97% | 103% | > 10 µM | > 10 µM | > 10 µM | > 10 µM | > 10 µM | 0 | 0 | 0 | 0 | 0
6 | CC(=O)C(=Cc1cc(O)c(O)c([N+](=O)[O-])c1)C(C)=O [nitecapone] | 94.7% | 92.1% | 99.9% | 95.7% | 96.4% | 97.5% | 93.7% | 105% | 109% | 110% | 103% | 94% | 96.5% | 98.4% | 93.7% | 98.8% | 102% | 96.6% | 103% | 95.6% | 109% | 107% | 105% | 98.7% | 105% | > 10 µM | > 10 µM | > 10 µM | > 10 µM | > 10 µM | 0 | 0 | 0 | 0 | 0
7 | CCc1cccc(N(C)C(=N)Nc2cccc3ccccc23)c1 [aptiganel] | 98.1% | 95.6% | 96.4% | 94.5% | 82% | 106% | 105% | 93.2% | 92.5% | 75.1% | 97.6% | 97.2% | 96.1% | 96% | 85.8% | 101% | 107% | 98.5% | 97.5% | 88.2% | 98.2% | 100% | 103% | 96.7% | 88.8% | > 10 µM | > 10 µM | > 10 µM | > 10 µM | > 10 µM | 0.7 | 1.4 | 0.1 | 0.1 | 0.1
8 | COc1cc(C(=O)NCc2ccc(OCCN(C)C)cc2)cc(OC)c1OC [trimethobenzamide] | 95.9% | 94.3% | 99.2% | 87.8% | 99.7% | 103% | 84.6% | 98.2% | 93.6% | 101% | 98.2% | 106% | 99.5% | 101% | 107% | 97.6% | 93.8% | 102% | 97.4% | 100% | 96.1% | 99.7% | 93.2% | 99.1% | 99.9% | > 10 µM | > 10 µM | > 10 µM | > 10 µM | > 10 µM | 0 | 0 | 0 | 0 | 0
9 | CN1CCN(c2ncc(-c3cc(Cl)cc(Cl)c3Cl)c(N)n2)CC1 [sipatrigine] | 85.5% | 91.1% | 92.3% | 91.8% | 85.3% | 92.1% | 105% | 108% | 111% | 92.3% | 100% | 103% | 110% | 98.4% | 86.4% | 104% | 102% | 104% | 103% | 92.9% | 110% | 107% | 100% | 101% | 94.5% | > 10 µM | > 10 µM | > 10 µM | > 10 µM | > 10 µM | 0 | 0 | 0.2 | 0 | 0
10 | CCCCNc1nc(N)c2[nH]c(=O)n(Cc3ccc(OCCN(C)C)nc3)c2n1 [DSR-6434] | 93.3% | 98.6% | 92.7% | 100% | 95.9% | 90.4% | 104% | 95.2% | 89.6% | 101% | 103% | 102% | 91% | 94.4% | 97.1% | 96.9% | 97.9% | 99% | 101% | 97% | 97.6% | 99.1% | 98.8% | 93.6% | 96.3% | > 10 µM | > 10 µM | > 10 µM | > 10 µM | > 10 µM | 0 | 0 | 0 | 0 | 0
11 | CC(Cc1cccc(C(F)(F)F)c1)NCCOC(=O)c1ccccc1 (stereo not given) [benfluorex] | 103% | 95.9% | 103% | 107% | 97.6% | 97.8% | 94.5% | 100% | 96.4% | 104% | 86% | 96.6% | 97.8% | 99.4% | 88.4% | 98.8% | 102% | 105% | 96.8% | 100% | 101% | 107% | 94.2% | 100% | 96.3% | > 10 µM | > 10 µM | > 10 µM | > 10 µM | > 10 µM | 0 | 0 | 0 | 0 | 0
12 | CC(C)[C@H](N)C(=O)OCCOCn1cnc2c(=O)nc(N)[nH]c21 [valaciclovir] | 103% | 96% | 104% | 99.4% | 104% | 103% | 98.8% | 88.4% | 111% | 90.3% | 103% | 92.5% | 104% | 99.5% | 101% | 94% | 101% | 96% | 105% | 110% | 90.1% | 92% | 86.5% | 86.1% | 105% | > 10 µM | > 10 µM | > 10 µM | > 10 µM | > 10 µM | 0 | 0 | 0 | 0 | 0
13 | CC(C)Oc1ccc2c(=O)c3cc(C(=O)O)ccc3oc2c1 [AH6809] | 97.6% | 100% | 93.2% | 93.6% | 85.2% | 112% | 111% | 96.9% | 103% | 104% | 96.6% | 97.1% | 91.5% | 93.6% | 94.5% | 104% | 105% | 107% | 102% | 95% | 96.5% | 102% | 95.3% | 89.8% | 98.9% | > 10 µM | > 10 µM | > 10 µM | > 10 µM | > 10 µM | 0.3 | 0 | 0 | 0 | 0
14 | N=C(NCCC[C@H](N)C(=O)O)N[N+](=O)[O-] [NG-nitro-arginine] | 92.7% | 88.8% | 106% | 84.2% | 89.4% | 93.5% | 106% | 91.7% | 93.7% | 94.6% | 96.7% | 101% | 95.2% | 101% | 95.2% | 104% | 95.6% | 101% | 93.2% | 97.9% | 104% | 101% | 103% | 101% | 92.8% | > 10 µM | > 10 µM | > 10 µM | > 10 µM | > 10 µM | 0 | 0 | 0 | 0 | 0
